For one assay, the target named is T1, PAF receptor (Oryctolagus cuniculus, UniProt G1TEI7).
T1 construct: centrifuged at 800 rpm for 10-15 minutes at room temperature to recover the platelet rich plasma (PRP); from tissue; host or cells: platelets in platelet rich plasma from blood of male New Zealand White rabbits
Briefly: Inhibition of PAF induced platelet aggregation in rabbit platelet rich plasma. Format: cell-based, rabbit (New Zealand White). Conditions: for inhibition at 10 µM: dose .00001 M. The procedure: Test compounds are evaluated as PAF receptor antagonists in vitro by measuring inhibition of PAF (platelet activating factor) induced platelet aggregation. Platelet aggregation is measured by a modification of the method described in […], et. al., J. Med. Chem., 27 1174, 1984. […] All syringes and pipets are plastic. The blood is gently mixed and immediately centrifuged at 800 rpm for 10-15 minutes at room temperature to recover the platelet rich plasma (PRP). Platelet poor plasma (PPP) is prepared by centrifuging PRP at 2800 rpm for 10 minutes at room temperature. Dilutions (1:3000) of PRP in Isotone diluent are made and platelet counts are determined on a Coulter Thrombocounter which is standardized with platelet reference standards (Interscience Platelet Control, Portland, Oreg.). PRP platelet counts are adjusted to approximately 400,000-500,000 platelets/μl by the addition of PPP. L-PAF (Platelet Activating Factor) is obtained from Calbiochem. […] All solutions are made up in plastic tubes, stored on ice and protected from heat and light. Solutions are prepared fresh or frozen at -20° C. and used within 48 hours. Incubation mixtures consisted of 400 μl PRP, 50 μl of saline diluent or test compound and 50 μl of PAF agonist. More specifically, 400μl of PRP is stabilized in a cuvette for 1-2 minutes at 37° C. in the aggregometer to achieve a stable baseline, then 50 μl of saline or test compound is added and incubated for 5 minutes before addition of the challenge concentration of pAF. A submaximal concentration is determined from the dose response curve for PAF for that experiment. In general, the challenge concentration is 5E-8 or 1E-7M. Aggregation is monitored for 5 minutes. Samples containing test compound or diluent are run simultaneously for comparison. Test compounds are initially evaluated at a screening concentration of 1E-5M. […] The recording equipment consists of a dual channel Chronolog aggregometer connected to a dual channel 10MV full scale deflection Omniscribe chart recorder (Houston Instruments). The chart recorder is calibrated daily with the use of a suspension of Bio-Rad latex beads (S-X 12 400 mesh) which has a density slightly greater than rabbit PRP. […] These limits defined a full scale deflection. The aggregation traces are analyzed by a digitizing method (C. Kohler and B. Zoltan, J. Pharm. Methods, 12, 113, 1984) with x, y coordinate data stored in a computer file. A suitable program computes parameters of interest such as the magnitude of aggregation.

The next assay has as its system PAF. The experiment in a line: PAF induced lethality in mice. Particulars: PAF 150 μg/kg IV. Format: in vivo. The procedure:
PAF given I.V. to mice causes an immediate hypotensive shock leading to death in 1 hour or less. […] Animals alive after 2 hours are counted and the activity of test compounds expressed as % survival corrected for any control (saline treated) animals which survived the PAF challenge.

[1] abbreviates: PAF challenge 5.0000E-08 M, read-out: % INH of PAF induced platelet aggregation.
The mark [2] stands for this setting: PAF challenge .0000005 M, read-out: % INH of PAF induced platelet aggregation.
The mark [3] stands for this setting: PAF challenge 1.0000E-08 M, read-out: % INH of PAF induced platelet aggregation.

Structures are written as SMILES. pIC50: −log10 of the molar value. Where “and” joins values, the source holds several entries; their conditions need not be identical. Equal entries are not always repeated. Structures can show the parent of a compound that is named as a salt. Where two headings read alike, the source gives them in different places.

In general, pIC50 refers to −log10 of the IC50, conventionally taken in molar units.

T1 sequence (G1TEI7 1-342): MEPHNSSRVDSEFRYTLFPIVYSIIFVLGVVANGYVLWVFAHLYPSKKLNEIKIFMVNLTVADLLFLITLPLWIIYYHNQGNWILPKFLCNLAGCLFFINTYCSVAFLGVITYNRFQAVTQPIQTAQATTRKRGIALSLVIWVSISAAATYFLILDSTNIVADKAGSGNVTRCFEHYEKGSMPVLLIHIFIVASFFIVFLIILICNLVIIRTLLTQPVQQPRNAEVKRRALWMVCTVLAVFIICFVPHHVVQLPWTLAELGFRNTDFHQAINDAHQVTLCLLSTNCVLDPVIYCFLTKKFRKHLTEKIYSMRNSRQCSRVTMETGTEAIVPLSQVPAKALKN

In turn, `CCCCCCCCCCCCCCOc1ccc(CN(C(C)=O)c2ccc(C[n+]3csc(C)c3)cc2)cc1` [3-[[4-[acetyl[[4-(tetradecyloxy)phenyl]methyl]amino]phenyl]methyl]-5-methyl-thiazolium bromide] had a pIC50 on PAF receptor (PAF challenge 5.0000E-08 M) of 5.68. The inhibition at 0.1 µM on PAF receptor (dose .0000001 M, PAF challenge 5.0000E-08 M, read-out: % INH of PAF induced platelet aggregation) amounted to 84%.
In turn, `CCCCCCCCCCCCCCOc1ccc(CC(=O)Nc2ccc(-n3cc[n+](C)c3C)cc2)cc1` [2,3-dimethyl-1-[4-[[[4-(tetradecyloxy)phenyl]acetyl]amino]phenyl]1H-imidazolium iodide] gave a negative logarithm of the IC50 (pIC50) against PAF receptor (PAF challenge 5.0000E-08 M) of 5.35. Further, the inhibition at 10 µM at PAF receptor (setting [1]) turned out to be 62%.
In turn, `CCCCCCCCCCCCCCOc1ccc(NC(=O)c2cccc(C[n+]3csc(C)c3)c2)cc1` [5-Methyl-3-[[3-[[[4-(tetradecyloxy)phenyl]amino]carbonyl]phenyl]methyl]thiazolium bromide] had a negative logarithm of the IC50 (pIC50) against PAF receptor (PAF challenge 5.0000E-08 M) of 5.57. The inhibition at 10 µM on PAF receptor (setting [1]) was found to be 89%.
As for `CCCCCCCCCCCCCCOc1ccc(CCN(C(C)=O)c2cccc(C[n+]3csc(C)c3)c2)cc1` [3-[[3-[Acetyl[2-[4-(tetradecyloxy)phenyl]ethyl]amino]phenyl]methyl]-5-methyl-thiazolium bromide], the negative-log IC50 (pIC50) was 5.54 at PAF receptor (PAF challenge 8.0000E-09 M) and 5.37 against PAF receptor (PAF challenge .0000005 M). The inhibition at 10 µM came out at 85% on PAF receptor (PAF challenge 8.0000E-09 M, read-out: % INH of PAF induced platelet aggregation) and 69% at PAF receptor (setting [2]).
With `CCCCCCCCCCCCCCOc1ccc(CC(=O)Nc2cccc(-c3scc[n+]3C)c2)cc1` [3-Methyl-2-[3-[[[4-(tetradecyloxy)phenyl]acetyl]amino]phenyl]thiazolium chloride], the pIC50 at PAF receptor (PAF challenge 5.0000E-08 M) is 4.92. In addition, the inhibition at 10 µM at PAF receptor (setting [1]) was 46%.
Regarding `CCCCCCCCCCCCCCOc1ccc(CC(=O)Nc2cccc(C[n+]3cc(C)cc(C)c3)c2)cc1` [3,5-Dimethyl-1-[[3-[[[4-(tetradecyloxy)phenyl]acetyl]amino]phenyl]methyl]pyridinium bromide], the inhibition at 10 µM at PAF receptor (setting [1]) came to 84%.
The molecule `CCCCCCCCCCCCCCOc1ccc(C(=O)Nc2cccc(C[n+]3csc(C)c3)c2)cc1` [5-Methyl-3-[[3-[[4-(tetradecyloxy)benzoyl]amino]phenyl]methyl]thiazolium bromide] showed a negative logarithm of the IC50 (pIC50) against PAF receptor (PAF challenge 5.0000E-08 M) of 5.22. Further, the inhibition at 10 µM on PAF receptor (setting [1]) is 54%.
Regarding `CCCCCCCCCCCCCCCCOc1ccc(OCC(=O)Nc2ccccc2C[n+]2csc(C)c2)cc1` [3-[[2-[[[4-(Hexadecyloxy)phenoxy]acetyl]amino]phenyl]methyl]-5-methyl-thiazolium bromide], the results for the pIC50 on PAF receptor (PAF challenge 1.0000E-08 M) and at PAF receptor (PAF challenge .0000005 M) were 4.95 and 5.42, respectively. In addition, the inhibition at 10 µM at PAF receptor (setting [3]) amounted to 60%; at PAF receptor (setting [2]), 83%.
As for `CCCCCCCCCCCCCCOc1ccc(CC(=O)Nc2ccc(C[n+]3csc(C)c3)cc2)cc1.[Br-]` [5-methyl-3-[[4-[[[4-(tetradecyloxy)phenyl]acetyl]amino]phenyl]methyl]-thiazolium bromide], on PAF receptor (PAF challenge 5.0000E-08 M), the negative logarithm of the IC50 (pIC50) is 6.74 and 6.49 and 5.89. Also, the inhibition at 10 µM on PAF receptor (setting [1]) stood at 92%. Further, the “% Survival” value with PAF (5 mg/kg P.O.) and with PAF (20 mg/kg P.O.) was 32% in each case.
On PAF receptor (PAF challenge 5.0000E-08 M), `CCCCCCCCCCCCCCOc1ccc(CN(C(C)=O)c2cccc(C[n+]3ccc(C)c(C)c3)c2)cc1` [1-[[3-[acetyl[[4-(tetradecyloxy)phenyl]methyl]amino]phenyl]methyl]-3,4-dimethyl-pyridinium bromide] gave a pIC50 of 4.92. The inhibition at 10 µM on PAF receptor (setting [1]) came to 52%.
At PAF receptor (PAF challenge 5E-9 M), `CCCCCCCCCCCCCCOc1cccc(CC(=O)Nc2ccccc2C[n+]2csc(C)c2)c1` [5-Methyl-3-[[2-[[[3-(tetradecyloxy)phenyl]acetyl]amino]phenyl]methyl]thiazolium bromide] gave a pIC50 of 4.47. Also, the inhibition at 10 µM on PAF receptor (setting [1]) was found to be 23%; on PAF receptor (PAF challenge 5E-9 M, read-out: % INH of PAF induced platelet aggregation) it was 27%.
For the molecule `CCCCCCCCCCCCCCCCOc1ccc(OCC(=O)Nc2cccc(C[n+]3csc(C)c3)c2)cc1` [3-[[3-[[[4-(Hexadecyloxy)phenoxy]acetyl]amino]phenyl]methyl]-5-methyl-thiazolium bromide], the results for the negative logarithm of the IC50 (pIC50) against PAF receptor (PAF challenge 1.0000E-08 M) and on PAF receptor (PAF challenge 5.0000E-08 M) were 5.36 and 5.30, respectively. For the same molecule, the inhibition at 10 µM at PAF receptor (setting [3]) amounted to 93%; on PAF receptor (setting [1]), 72%.
As to `CCCCCCCCCCCCCCOc1ccc(CC(=O)Nc2cccc(C[n+]3ccn4ccccc43)c2)cc1`, the pIC50 against PAF receptor (PAF challenge 5.0000E-08 M) is 5.82. Further, on PAF receptor (setting [1]), the inhibition at 10 µM turned out to be 91%.
Taken in the same sequence, the figures for `CCCCCCCCCCCCCCOc1ccc(CC(=O)Nc2cccc(-n3ccnc3C)c2)cc1` [N-[3-(2-methyl-1H-imidazol-1-yl)phenyl]-4-(tetradecyloxy)-benzeneacetamide monohydrochloride] were 4.73 and 34%.
At PAF receptor (PAF challenge 5.0000E-08 M), `CCCCCCCCCCCCCCOc1ccc(CC(=O)Nc2cccc(-n3cc[n+](C)c3C)c2)cc1` [2,3-dimethyl-1-[3-[[[4-(tetradecyloxy)phenyl]acetyl]amino]phenyl]1H-imidazolium iodide] gave a negative-log IC50 (pIC50) of 5.61. The inhibition at 10 µM on PAF receptor (setting [1]) stood at 80%.
For the molecule `CCCCCCCCCCCCCCOc1ccc(CN(C(C)=O)c2cccc(C[n+]3csc(C)c3)c2)cc1.[Br-]` [3-[[3-[Acetyl[[4-(tetradecyloxy)phenyl]methyl]amino]phenyl]methyl]-5-methylthiazolium bromide], the inhibition at 10 µM at PAF receptor (setting [1]) came to 98%. Further, the “% Survival” value with PAF (1 mg/kg I.V.) was found to be 83%; with PAF (5 mg/kg P.O.), 52%; in the assay on PAF (10 mg/kg P.O.) it was 75%; in the assay on PAF (20 mg/kg P.O.), 75%; in the assay with PAF (.25 mg/kg I.V.), 100%; in the assay on PAF (.5 mg/kg I.V.), 83%.
`CCCCCCCCCCCCCCOc1ccc(NC(=O)Nc2cccc(C[n+]3csc(C)c3)c2)cc1` [5-Methyl-3-[[3-[[[[4-(tetradecyloxy)phenyl]amino]carbonyl]amino]phenyl]methyl]thiazolium bromide]: the figures for the negative logarithm of the IC50 (pIC50) against PAF receptor (PAF challenge 5.0000E-08 M) and at PAF receptor (PAF challenge .0000001 M) were 5.82 and 4.77, respectively. In addition, the inhibition at 10 µM at PAF receptor (setting [1]) worked out at 92%. The inhibition at 50 µM at PAF receptor (dose .00005 M, PAF challenge .0000001 M, read-out: % INH of PAF induced platelet aggregation) amounted to 80%.
